US20260085062A1, “NOVEL COMPOUNDS AS CK2 INHIBITORS” (Cambridge Enterprise Limited, priority 2022, published 2026)

Legend:
[1] = molecular target: T1, intracellular CK2α (Homo sapiens, UniProt P19784); assay: Cell-based NanoBRET assay for inhibitor binding to intracellular CK2α; details: HCT116 cells transiently transfected with CSNK2A2-NanoLuc fusion vector; Tracer K-5; 2 h; read-out: Assay 3: NanoBRET ™ assay for binding to intracellular CK2α
T1 construct: host or cells: HCT116 (ATCC CCL-247)
T1 sequence (P19784 whole entry, the tested form may be a part): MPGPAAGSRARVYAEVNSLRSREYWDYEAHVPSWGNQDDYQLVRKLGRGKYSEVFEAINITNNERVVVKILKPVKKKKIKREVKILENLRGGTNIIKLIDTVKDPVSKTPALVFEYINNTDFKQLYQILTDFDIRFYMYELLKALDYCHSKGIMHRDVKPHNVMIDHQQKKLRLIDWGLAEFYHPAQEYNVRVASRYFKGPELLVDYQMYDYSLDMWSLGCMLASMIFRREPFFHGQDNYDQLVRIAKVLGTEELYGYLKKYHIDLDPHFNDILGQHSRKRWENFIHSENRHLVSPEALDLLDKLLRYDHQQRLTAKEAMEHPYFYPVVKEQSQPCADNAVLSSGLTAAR
In short: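 Apparent affinity came from BRET ratio (acceptor/donor ×1,000), with donor read at 450 nm and acceptor at 610 or 630 nm. Compounds competed off a tracer added at fixed concentration to cells carrying a NanoLuc-CK2α fusion.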

[2] = molecular target: T2, CLK2 (Homo sapiens, UniProt P49760); assay: Biochemical assay for inhibitors of CLK2 kinase activity (ADP-Glo); details: 20 nM CLK2, 50 μM peptide substrate, 100 μM ATP, read-out: Assay 2: CLK2 Enzyme IC50
T2 construct: purchased Carna Biosciences 04-127
T2 sequence (P49760 whole entry): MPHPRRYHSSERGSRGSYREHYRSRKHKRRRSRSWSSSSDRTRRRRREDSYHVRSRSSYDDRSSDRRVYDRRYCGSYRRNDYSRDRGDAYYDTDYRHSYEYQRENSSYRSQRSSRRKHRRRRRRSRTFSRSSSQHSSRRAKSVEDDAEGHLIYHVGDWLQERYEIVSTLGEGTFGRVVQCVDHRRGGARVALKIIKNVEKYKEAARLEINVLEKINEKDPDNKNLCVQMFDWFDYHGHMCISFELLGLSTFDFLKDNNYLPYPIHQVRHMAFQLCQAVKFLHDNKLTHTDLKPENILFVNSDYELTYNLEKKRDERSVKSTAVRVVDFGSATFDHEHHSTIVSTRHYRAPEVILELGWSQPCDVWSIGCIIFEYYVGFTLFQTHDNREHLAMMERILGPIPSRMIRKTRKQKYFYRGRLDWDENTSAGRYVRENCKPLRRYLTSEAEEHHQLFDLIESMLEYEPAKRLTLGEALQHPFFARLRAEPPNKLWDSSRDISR

[3] = molecular target: T3, CK2α (Homo sapiens, UniProt P68400); assay: Biochemical assay for inhibitors of CK2α kinase activity (ADP-Glo); details: 0.2 nM CK2α, 50 μM peptide substrate, 15 μM ATP, read-out: Assay 1: CK2α Enzyme IC50
T3 construct: CK2α (residues 2-329) was produced in Escherichia coli BL21 (DE3) for kinase activity screening; His6 (N, cleaved yes); made in house; host or cells: Escherichia coli BL21 (DE3)
T3 sequence (P68400 2-329): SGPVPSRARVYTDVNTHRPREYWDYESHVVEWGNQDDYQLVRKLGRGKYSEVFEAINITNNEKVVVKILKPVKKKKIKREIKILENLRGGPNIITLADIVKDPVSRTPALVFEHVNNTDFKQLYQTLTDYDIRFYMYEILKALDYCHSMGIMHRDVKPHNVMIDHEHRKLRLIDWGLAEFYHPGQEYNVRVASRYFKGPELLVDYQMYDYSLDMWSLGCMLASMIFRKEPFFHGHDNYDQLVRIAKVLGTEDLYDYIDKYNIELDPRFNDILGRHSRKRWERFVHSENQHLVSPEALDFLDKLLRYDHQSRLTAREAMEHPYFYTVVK

IC50 [1] [µM]	IC50 [2] [nM]	IC50 [3] [nM]	SMILES
8.05	1920	46.7	Cc1nccn1-c1cc(NCCCNC(=O)CCNCc2ccc(-c3ccccc3)c(Cl)c2)c2cn[nH]c2c1 [Example 80, 3-(((2-chloro-[1,1′-biphenyl]-4-yl)methyl)amino)-N-(3-((6-(2-methyl-1H-imidazol-1-yl)-1H-indazol-4-yl)amino)propyl)propanamide]
0.753	526	0.32	O=C(CCNCc1ccc(OC(F)(F)F)c(Cl)c1)NCCCNc1cc(-c2cc[nH]c(=O)c2)cc2[nH]ncc12 [Example 31, 3-((3-chloro-4-(trifluoromethoxy)benzyl)amino)-N-(3-((6-(2-oxo-1,2-dihydropyridin-4-yl)-1H-indazol-4-yl)amino)propyl)propanamide]
20.2	38.4	0.62	O=C(CCNCc1cc(Cl)cc(CO)c1)NCCCNc1cc(-n2cnnc2)cc2[nH]ncc12 [Example 43, N-(3-((6-(4H-1,2,4-triazol-4-yl)-1H-indazol-4-yl)amino)propyl)-3-((3-chloro-5-(hydroxymethyl)benzyl)amino)propanamide]
3	146	28.1	N#CCc1cc(Cl)cc(CNCCCCOC2CN(c3cc(-n4cnnc4)cc4[nH]ncc34)C2)c1 [Example 131, 2-(3-(((4-((1-(6-(4H-1,2,4-triazol-4-yl)-1H-indazol-4-yl)azetidin-3-yl)oxy)butyl)amino)methyl)-5-chlorophenyl)acetonitrile]
3.07	2040	31.5	N#CCc1cc(Cl)cc(CNCCCCOC2CN(c3cc(-c4ccnnc4)cc4[nH]ncc34)C2)c1 [Example 133, 2-(3-chloro-5-(((4-((1-(6-(pyridazin-4-yl)-1H-indazol-4-yl)azetidin-3-yl)oxy)butyl)amino)methyl)phenyl)acetonitrile]
> 50	87.5	9.06	O=C(CCNCc1cccc(CCO)c1)NCCCNc1cc(-n2cnnc2)cc2[nH]ncc12 [Example 40, N-(3-((6-(4H-1,2,4-triazol-4-yl)-1H-indazol-4-yl)amino)propyl)-3-((3-(2-hydroxyethyl)benzyl)amino)propanamide]
0.84	106	29.8	N#CCc1cc(Cl)cc(CNCCCCOC2CN(c3cc(-c4cnoc4)cc4[nH]ncc34)C2)c1 [Example 122, 2-(3-chloro-5-(((4-((1-(6-(isoxazol-4-yl)-1H-indazol-4-yl)azetidin-3-yl)oxy)butyl)amino)methyl)phenyl)acetonitrile]
> 50	83.8	6.94	O=C(CCNCc1cccc(OCCO)c1)NCCCNc1cc(-n2cnnc2)cc2[nH]ncc12 [Example 42, N-(3-((6-(4H-1,2,4-triazol-4-yl)-1H-indazol-4-yl)amino)propyl)-3-((3-(2-hydroxyethoxy)benzyl)amino)propanamide]
4.9	23300	45.3	Fc1cc(CNCCCCOCCNCc2cc(-n3cnnc3)cc3[nH]ncc23)cc(F)c1OC(F)(F)F [Example 171, 4-(2-(((6-(4H-1,2,4-triazol-4-yl)-1H-indazol-4-yl)methyl)amino)ethoxy)-N-(3,5-difluoro-4-(trifluoromethoxy)benzyl)butan-1-amine]
49.2	152	162	OCc1cc(F)cc(CNCCCCOC2CN(c3cc(-n4cnnc4)cc4[nH]ncc34)C2)c1 [Example 125, (3-(((4-((1-(6-(4H-1,2,4-triazol-4-yl)-1H-indazol-4-yl)azetidin-3-yl)oxy)butyl)amino)methyl)-5-fluorophenyl)methanol]
20.6	2720	384	OCc1cc(F)cc(CNCCCCOC2CN(c3cc(-c4ccnnc4)cc4[nH]ncc34)C2)c1 [Example 110, (3-fluoro-5-(((4-((1-(6-(pyridazin-4-yl)-1H-indazol-4-yl)azetidin-3-yl)oxy)butyl)amino)methyl)phenyl)methanol]
0.106	787	0.76	O=C(CCNCc1ccc(OC(F)(F)F)c(Cl)c1)NCCCNc1cc(-c2ccncc2)nc2[nH]ncc12 [Example 185, 3-((3-chloro-4-(trifluoromethoxy)benzyl)amino)-N-(3-((6-(pyridin-4-yl)-1H-pyrazolo[3,4-b]pyridin-4-yl)amino)propyl)propanamide]
0.0547	301	12.4	C[C@@H](CCCOCCNc1cc(-c2cnoc2)cc2[nH]ncc12)NCc1cc(OC(F)(F)F)cc(C(N)=O)c1 [Example 196, (S)-3-(((5-(2-((6-(isoxazol-4-yl)-1H-indazol-4-yl)amino)ethoxy)pentan-2-yl)amino)methyl)-5-(trifluoromethoxy)benzamide]
0.743	1960	44.3	O=C(CCNCc1ccc(-c2ccccc2)c(Cl)c1)NCCCNc1cc(-c2cncnc2)cc2[nH]ncc12 [Example 73, 3-(((2-chloro-[1,1′-biphenyl]-4-yl)methyl)amino)-N-(3-((6-(pyrimidin-5-yl)-1H-indazol-4-yl)amino)propyl)propanamide]
3.67	209	44.9	Cc1cc(CC#N)cc(CNCCCCOC2CN(c3cc(-c4cnoc4)cc4[nH]ncc34)C2)c1 [Example 121, 2-(3-(((4-((1-(6-(isoxazol-4-yl)-1H-indazol-4-yl)azetidin-3-yl)oxy)butyl)amino)methyl)-5-methylphenyl)acetonitrile]
8.09	2710	67.5	N#CCc1cc(F)cc(CNCCCCOC2CN(c3cc(-c4ccnnc4)cc4[nH]ncc34)C2)c1 [Example 113, 2-(3-fluoro-5-(((4-((1-(6-(pyridazin-4-yl)-1H-indazol-4-yl)azetidin-3-yl)oxy)butyl)amino)methyl)phenyl)acetonitrile]

SMILES	IC50 [1] [µM]	IC50 [2] [nM]	IC50 [3] [nM]
O=C(O)c1cc(NCCOCCCCNCc2cc(F)c(OC(F)(F)F)c(F)c2)c2cn[nH]c2c1 [Example 197, 4-((2-(4-((3,5-difluoro-4-(trifluoromethoxy)benzyl)amino)butoxy)ethyl)amino)-1H-indazole-6-carboxylic acid]	> 3	> 50000	> 1000
c1cc2[nH]c(CNCCCCOCCOc3cc(-n4cnnc4)cc4[nH]ncc34)cc2cc1OC1CCC1 [Example 118, 4-(2-((6-(4H-1,2,4-triazol-4-yl)-1H-indazol-4-yl)oxy)ethoxy)-N-((5-cyclobutoxy-1H-indol-2-yl)methyl)butan-1-amine]	0.204	1100	0.86
Fc1cc(CNCCCCOCCNc2cc(-c3ccncc3)c(F)c3[nH]ncc23)cc(F)c1OC(F)(F)F [Example 176, N-(2-(4-((3,5-difluoro-4-(trifluoromethoxy)benzyl)amino)butoxy)ethyl)-7-fluoro-6-(pyridin-4-yl)-1H-indazol-4-amine]	0.217	332	5.99
FC(F)(F)Oc1ccc(CNCCCCOCCNc2cc(-n3cnnc3)cc3[nH]nnc23)cc1Cl [Example 126, N-(2-(4-((3-chloro-4-(trifluoromethoxy)benzyl)amino)butoxy)ethyl)-6-(4H-1,2,4-triazol-4-yl)-1H-benzo[d][1,2,3]triazol-4-amine]	3.63	18100	11.1
N#Cc1cc(CNCCC(=O)NCCCNc2cc(-n3cnnc3)cc3[nH]ncc23)ccc1OC1CCC1 [Example 39, N-(3-((6-(4H-1,2,4-triazol-4-yl)-1H-indazol-4-yl)amino)propyl)-3-((3-cyano-4-cyclobutoxybenzyl)amino)propanamide]	2.08	63.3	0.28
Cc1nncn1-c1cc(NCCOCCCCNCc2cc3cc(C(F)(F)F)ccc3[nH]2)c2cn[nH]c2c1 [Example 86, 6-(3-methyl-4H-1,2,4-triazol-4-yl)-N-(2-(4-(((5-(trifluoromethyl)-1H-indol-2-yl)methyl)amino)butoxy)ethyl)-1H-indazol-4-amine]	1.35	1670	6.36
Clc1ccc2nc(CNCCCCOCCNc3cc(-n4cnnc4)cc4[nH]ncc34)[nH]c2c1 [Example 23, N-(2-(4-(((6-chloro-1H-benzo[d]imidazol-2-yl)methyl)amino)butoxy)ethyl)-6-(4H-1,2,4-triazol-4-yl)-1H-indazol-4-amine]	17.5	86.1	19.9
Cc1c(-c2ccncc2)cc(NCCOCCCCNCc2cc(F)c(OC(F)(F)F)c(F)c2)c2cn[nH]c12 [Example 179, N-(2-(4-((3,5-difluoro-4-(trifluoromethoxy)benzyl)amino)butoxy)ethyl)-7-methyl-6-(pyridin-4-yl)-1H-indazol-4-amine]	1.45	1930	42.7
